Consider 2 compounds from the supplement of paper PMC4862054.

In assay [1] the test system is MCF-10A. Particulars: 72 h. In a few lines: (§1)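 In this assay, breast cancer cell lines spent 72 h with compound at 5 concentrations in 10-fold steps over a compound-specific 10,000-fold range. The first readout was cell death by CellTox Green fluorescence, and the second was viability by CellTiter-Glo luminescence, each normalised per plate to 0.1 % DMSO and a positive kill control. EC50 came from the dose-response curves, censored at the top concentration.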

In assay [2] the test system is BT-474. To be noted: 72 h. The method in brief:
as §1

In assay [3] the test system is MDA-MB-231. To be noted: 72 h. In a few lines: as §1
Assay [4] deals with BT-549. To be noted: 72 h. The method in brief: as §1
Assay [5] concerns HDQ-P1. Particulars: 72 h. In a few lines:
as §1

Assay [6] relates to MCF-10A. To be noted: 72 h. The procedure:
(§2)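 Drug sensitivity and resistance testing (DSRT) of breast cancer cell lines in 384-well plates, 5 concentrations in 10-fold dilutions over a compound-specific 10,000-fold range. After 72 h, cytotoxicity was read by CellTox Green fluorescence and viability by CellTiter-Glo luminescence (multiplexed), normalised to DMSO and benzethonium chloride controls. EC50 is the inflection point of the fitted dose-response curve (bottom asymptote free, so it can be relative for partial curves) and is censored at the highest tested concentration. Rows with DSS 0 (no meaningful response) were excluded.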
This is another data set of the same source.

The test system of assay [7] is MDA-MB-231. Particulars: 72 h. The procedure: as §2
This is another data set of the same source.

Assay [8] concerns MDA-MB-468. To be noted: 72 h. How it is done: as §2
Assay [9] has as its system HCC1937. Briefly: normalised response (% of control), CellTiter-Glo; higher = more viable cells (100 = DMSO, 0 = benzethonium chloride kill control). Particulars: incubation time: 72 h. In a few lines: (§3)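 For each plate, 0.1 % DMSO was set to 100 and a positive kill control to 0. Breast cancer cell lines (20 µl suspension) were seeded into 384-well plates already holding compound at 5 concentrations in 10-fold steps over a 10,000-fold range chosen per compound, and incubated for 72 h. CellTox Green fluorescence at 485/520 nm was read before CellTiter-Glo luminescence, which followed 10 min at room temperature. Each value is the normalised signal at one concentration.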

Assay [10] relates to MCF-10A. The assay is described as above. To be noted: incubation time: 72 h. In a few lines:
as §3

Assay [11] relates to MFM-223. The description is as above. To be noted: incubation time: 72 h. In a few lines: as §3
Assay [12] concerns HCC1143. The assay is described as above. To be noted: incubation time: 72 h. The method in brief:
as §3

Assay [13] deals with BT-474. Described as above. To be noted: incubation time: 72 h. In a few lines:
as §3

The test system of assay [14] is MDA-MB-436. The description is as above. To be noted: incubation time: 72 h. In a few lines: as §3
Assay [15] concerns DU-4475. The assay is described as above. Particulars: incubation time: 72 h. In a few lines:
as §3

Assay [16] relates to HCC1599. The assay is described as above. To be noted: incubation time: 72 h. In a few lines: as §3
The test system of assay [17] is CAL-148. Described as above. Particulars: incubation time: 72 h. In a few lines:
as §3

Assay [18] concerns MDA-MB-231. The description is as above. Particulars: incubation time: 72 h. In a few lines: as §3
In assay [19] the test system is MDA-MB-468. Described as above. Particulars: incubation time: 72 h. In a few lines: as §3
The subject of assay [20] is Hs578T. Described as above. Particulars: incubation time: 72 h. In a few lines: as §3
Assay [21] has as its system CAL-85-1. The description is as above. To be noted: incubation time: 72 h. The method in brief: as §3
The test system of assay [22] is BT-549. The description is as above. Particulars: incubation time: 72 h. In a few lines:
as §3

Assay [23] has as its system CAL-51. The description is as above. To be noted: incubation time: 72 h. The method in brief: as §3
Assay [24] deals with SK-BR-3. The description is as above. Particulars: incubation time: 72 h. In a few lines:
as §3

The test system of assay [25] is CAL-120. Described as above. Particulars: incubation time: 72 h. The method in brief: as §3
Assay [26] has as its system MDA-MB-453. The assay is described as above. To be noted: incubation time: 72 h. The method in brief:
as §3

Assay [27] has as its system HDQ-P1. Described as above. To be noted: incubation time: 72 h. The method in brief: as §3
Assay [28] concerns HCC1937. Briefly: normalised viability (% of control), CellTiter-Blue; higher = more viable cells (100 = DMSO, 0 = benzethonium chloride kill control). To be noted: incubation time: 72 h. The method in brief: (§4)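 The reported figure is normalised viability at a single listed concentration of the series. Breast cancer cell lines (20 µl suspension) went onto 384-well plates holding compound in 5 µl medium for 72 h. CellTiter-Blue (2.5 µl, 2 h, 37 °C) was read by fluorescence at 560/590 nm, and each plate was scaled to vehicle at 100 and a positive kill control at 0.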
(Resazurin is reduced to fluorescent resorufin, in cell work by metabolically active cells.)

For assay [29], the system named is MFM-223. Described as above. To be noted: incubation time: 72 h. In a few lines: as §4
Assay [30] has as its system HCC1143. Described as above. To be noted: incubation time: 72 h. The method in brief: as §4
Assay [31] deals with BT-474. Described as above. Particulars: incubation time: 72 h. The method in brief: as §4
Assay [32] relates to MDA-MB-436. Described as above. To be noted: incubation time: 72 h. The method in brief: as §4
Assay [33] deals with DU-4475. The assay is described as above. Particulars: incubation time: 72 h. The method in brief: as §4
For assay [34], the system named is HCC1599. Described as above. To be noted: incubation time: 72 h. The method in brief: as §4
Assay [35] has as its system CAL-148. Described as above. To be noted: incubation time: 72 h. The method in brief: as §4
Assay [36] deals with MDA-MB-231. Described as above. To be noted: incubation time: 72 h. The method in brief:
as §4

Assay [37] concerns MDA-MB-468. The description is as above. Particulars: incubation time: 72 h. In a few lines: as §4
Assay [38] concerns Hs578T. Described as above. Particulars: incubation time: 72 h. In a few lines:
as §4

The test system of assay [39] is CAL-85-1. Described as above. Particulars: incubation time: 72 h. The method in brief:
as §4

Assay [40] has as its system BT-549. The description is as above. Particulars: incubation time: 72 h. In a few lines:
as §4

The test system of assay [41] is CAL-51. The assay is described as above. To be noted: incubation time: 72 h. In a few lines:
as §4

Assay [42] relates to SK-BR-3. The assay is described as above. Particulars: incubation time: 72 h. The method in brief: as §4
In assay [43] the test system is CAL-120. The description is as above. Particulars: incubation time: 72 h. In a few lines:
as §4

For assay [44], the system named is MDA-MB-453. The assay is described as above. Particulars: incubation time: 72 h. In a few lines: as §4
The subject of assay [45] is HDQ-P1. The description is as above. Particulars: incubation time: 72 h. The method in brief: as §4

As for `CCC(C)(C)C(=O)O[C@H]1C[C@@H](C)C=C2C=C[C@H](C)[C@H](CC[C@@H]3C[C@@H](O)CC(=O)O3)[C@H]21` [Simvastatin], the “EC50, CellTiter-Glo” value in the assay on MCF-10A [1] was 6390 nM; in the assay on BT-474 [2] it was 1200 nM; in the assay with MDA-MB-231 [3], 3150 nM; in the assay on BT-549 [4] it was > 10000 nM; in the assay with HDQ-P1 [5], 1700 nM. The “EC50, CellTox Green” value in the assay on MCF-10A [6] stood at 2590 nM; with MDA-MB-231 [7], 1680 nM; in the assay on MDA-MB-468 [8] it was 511 nM.
Take `Oc1nc(-c2ccc(C(F)(F)F)cc2)nc2c1CSCC2` [XAV-939] (1 nM): the normalised response in the assay with HCC1937 [9] stood at 97.2%; in the assay on MCF-10A [10] it was 101%; in the assay on MFM-223 [11] it was 102%; in the assay with HCC1143 [12], 100%; in the assay with BT-474 [13], 99.7%; in the assay with MDA-MB-436 [14], 107%. Also, the normalised response stood at 104% with DU-4475 [15]; 95.8% in the assay on HCC1599 [16]; 92.4% with CAL-148 [17]; 101% in the assay on MDA-MB-231 [18]; 99.1% with MDA-MB-468 [19]; 97.1% in the assay with Hs578T [20]. In addition, the normalised response was 104% in the assay on CAL-85-1 [21]; 95.8% in the assay on BT-549 [22]; 97.6% in the assay with CAL-51 [23]; 99.2% in the assay on SK-BR-3 [24]; 97.1% in the assay with CAL-120 [25]; 97.6% with MDA-MB-453 [26]. This compound also showed a normalised response with HDQ-P1 [27] of 98.9%. Also, the normalised viability came out at 84% in the assay with HCC1937 [28]; 107% in the assay with MFM-223 [29]; 97.6% in the assay with HCC1143 [30]; 84.9% with BT-474 [31]; 119% in the assay with MDA-MB-436 [32]; 119% in the assay on DU-4475 [33]. The normalised viability in the assay with HCC1599 [34] amounted to 141%; in the assay on CAL-148 [35] it was 101%; in the assay on MDA-MB-231 [36], 100%; in the assay with MDA-MB-468 [37], 104%; in the assay on Hs578T [38] it was 89.6%; in the assay on CAL-85-1 [39] it was 93.8%. Also, the normalised viability turned out to be 99.4% in the assay on BT-549 [40]; 102% in the assay on CAL-51 [41]; 99.3% with SK-BR-3 [42]; 97.7% in the assay on CAL-120 [43]; 106% with MDA-MB-453 [44]; 97.3% in the assay on HDQ-P1 [45].
